Measurements: patent publication US4731109A, “Herbicidal 2-haloacetanilides” (Monsanto Company, priority 1982, dated 1988)

Legend:
Assay in all cases: Greenhouse pre-emergence GR15/GR85 selectivity test
Assay type in all cases: in vivo
Details in all cases: Table XV
[1] = test system: common ragweed
How it was run: (§1)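 Pre-emergence soil-incorporation test: seeded pans were covered with topsoil mixed with active ingredient (in solvent or as wettable powder), overhead-irrigated (0.64 cm) or not, then subirrigated. Plants were scored about 2-3 weeks after treatment. GR15/GR85 rates are in kg/ha, and selectivity factor is crop GR15 divided by weed GR85.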

[2] = test system: common purslane
How it was run: as §1

[3] = test system: prickly sida
How it was run: as §1

[4] = test system: redroot pigweed
How it was run: as §1

CCOCN(C(=O)CCl)c1c(CC)cccc1C(F)(F)F [Example 9, N--(ethoxymethyl)-2'-trifluoromethyl-6'-ethyl-2-chloroacetanilide]
GR85 Rate [1]: > 1.12 Kg/Ha | selectivity factor (GR15/GR85) ([1]; in rape): NS (non-selective) | GR85 Rate [2]: 0.78 Kg/Ha | selectivity factor (GR15/GR85) ([2]; in rape): 1.3 | GR85 Rate [3]: > 1.12 Kg/Ha | selectivity factor (GR15/GR85) ([3]; in rape): NS (non-selective) | GR85 Rate [4]: 0.70 Kg/Ha | selectivity factor (GR15/GR85) ([4]; in rape): 1.4
